Read-outs that look alike come from different tables or passages of the source.
What was measured:
FLT3 = target: T1, FLT3 (Homo sapiens, UniProt P36888); assay: KinomeScan Kd determination, FLT3; type: binding; details: for KdRTK/KdKIT, FLT3: Kd FLT3 over Kd KIT; for Kd: KinomeScan
T1 construct: purchased DiscoverX (KinomeScan service)
T1 sequence (P36888 27-993): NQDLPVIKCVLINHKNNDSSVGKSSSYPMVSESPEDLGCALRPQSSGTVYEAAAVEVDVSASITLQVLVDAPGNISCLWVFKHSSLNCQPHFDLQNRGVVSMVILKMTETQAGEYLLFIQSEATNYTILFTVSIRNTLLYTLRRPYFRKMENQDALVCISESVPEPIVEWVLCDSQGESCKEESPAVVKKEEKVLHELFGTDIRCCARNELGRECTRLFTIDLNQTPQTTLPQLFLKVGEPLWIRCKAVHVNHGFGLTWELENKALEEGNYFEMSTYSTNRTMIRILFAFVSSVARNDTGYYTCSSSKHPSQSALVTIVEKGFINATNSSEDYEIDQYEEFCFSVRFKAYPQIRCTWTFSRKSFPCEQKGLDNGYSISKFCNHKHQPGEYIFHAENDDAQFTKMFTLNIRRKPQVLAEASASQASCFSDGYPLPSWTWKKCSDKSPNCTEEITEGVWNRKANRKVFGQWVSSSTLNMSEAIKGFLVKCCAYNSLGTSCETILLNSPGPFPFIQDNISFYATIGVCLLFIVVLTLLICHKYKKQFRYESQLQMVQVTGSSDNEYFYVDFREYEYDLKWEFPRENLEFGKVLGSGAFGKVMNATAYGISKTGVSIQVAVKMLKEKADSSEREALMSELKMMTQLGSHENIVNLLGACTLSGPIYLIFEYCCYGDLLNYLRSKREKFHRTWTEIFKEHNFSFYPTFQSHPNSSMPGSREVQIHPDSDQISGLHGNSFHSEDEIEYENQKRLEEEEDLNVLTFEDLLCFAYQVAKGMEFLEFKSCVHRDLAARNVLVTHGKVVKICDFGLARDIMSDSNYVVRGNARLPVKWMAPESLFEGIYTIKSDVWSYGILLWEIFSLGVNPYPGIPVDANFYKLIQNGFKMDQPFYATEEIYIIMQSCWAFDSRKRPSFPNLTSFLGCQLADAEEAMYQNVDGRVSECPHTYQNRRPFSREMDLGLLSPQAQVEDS
Experimental: (§1) The compounds were evaluated using the KinomeScan™ platform (http://www.discoverx.com/services/drug-discovery-development-services/kinase-profiling/kinomescan), that measures the ability of the test compound to disrupt the complex between a high affinity ATP-mimic probe immobilized on a solid support and the kinase of interest. The KinomeScan is a very helpful technology for the fast and reliable screening of a number of compounds against a wide and customizable panel of kinases. Besides, it is not based on the use of hazardous radioactive ^32P-ATP and has a very low rate of false positive (<1%)[44]. The screening platform outputs a “Percent of Control” (POC) value, statistically correlated to the dissociation constant (Kd) value (http://www.discoverx.com/tools-resources/leadhunter-study-reports-data-analysis), for each pair of kinase/ligand. The POC is calculated as reported in equation (1): […]
(§2) The ability of compounds 19 and 27 to bind the class III RTK members was measured (Table 2; see also Figs S3 and S4 for dose/response curves).
(§3) Figure S3. Dose/response curve for compound 19 against tested kinases for Kd determination. The amount of kinase measured by qPCR (Signal; y-axis) is plotted against the corresponding compound concentration in nM in log10 scale (x-axis). Data points marked with an "x" were not used for Kd determination.
(§4) (1 picture or pasted object on this page, not shown here)
(§5) Figure S4. Dose/response curve for compound 27 against tested kinases for Kd

PDGFRβ = target: T2, PDGFRβ (Homo sapiens, UniProt P09619); assay: KinomeScan Kd determination, PDGFRβ; type: binding; details: for KdRTK/KdKIT, PDGFRβ: Kd PDGFRβ over Kd KIT; for Kd: KinomeScan
T2 construct: purchased DiscoverX (KinomeScan service)
T2 sequence (P09619 33-1106): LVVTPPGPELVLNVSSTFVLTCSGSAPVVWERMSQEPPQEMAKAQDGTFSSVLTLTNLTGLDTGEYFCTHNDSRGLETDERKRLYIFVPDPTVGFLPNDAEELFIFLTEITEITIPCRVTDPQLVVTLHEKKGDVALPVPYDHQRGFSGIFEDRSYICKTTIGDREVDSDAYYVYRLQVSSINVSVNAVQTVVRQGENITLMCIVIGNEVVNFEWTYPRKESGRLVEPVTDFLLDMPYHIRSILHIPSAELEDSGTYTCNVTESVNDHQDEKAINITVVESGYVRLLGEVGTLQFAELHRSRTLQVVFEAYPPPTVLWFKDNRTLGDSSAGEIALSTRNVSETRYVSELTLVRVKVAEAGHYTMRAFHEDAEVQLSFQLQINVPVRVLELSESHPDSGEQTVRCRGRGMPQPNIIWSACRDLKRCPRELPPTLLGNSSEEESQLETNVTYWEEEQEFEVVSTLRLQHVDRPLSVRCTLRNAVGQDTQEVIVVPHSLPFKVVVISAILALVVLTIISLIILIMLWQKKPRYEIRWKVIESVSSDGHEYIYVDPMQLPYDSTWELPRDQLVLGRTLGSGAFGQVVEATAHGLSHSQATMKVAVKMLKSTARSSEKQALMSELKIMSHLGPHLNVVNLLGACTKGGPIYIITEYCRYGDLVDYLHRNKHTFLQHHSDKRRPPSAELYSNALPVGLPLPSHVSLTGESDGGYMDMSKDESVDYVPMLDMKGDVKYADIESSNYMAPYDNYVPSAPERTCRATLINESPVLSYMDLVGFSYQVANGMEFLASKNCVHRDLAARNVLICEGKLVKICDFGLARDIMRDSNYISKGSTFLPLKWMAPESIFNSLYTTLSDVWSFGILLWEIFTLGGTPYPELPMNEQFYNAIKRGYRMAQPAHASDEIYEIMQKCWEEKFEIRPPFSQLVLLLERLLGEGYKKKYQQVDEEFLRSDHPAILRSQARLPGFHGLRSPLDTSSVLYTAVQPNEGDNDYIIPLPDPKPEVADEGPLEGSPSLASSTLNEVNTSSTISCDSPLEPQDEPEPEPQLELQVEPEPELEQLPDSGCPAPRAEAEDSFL
Experimental: as §1, §2, §3, §4, §5

LoVo cells = assay: MTT cytotoxicity assay, LoVo colon carcinoma cells; type: cell-based; details: Homo sapiens, MTT test, 72 h, read-out: LoVo IC50 (μM) ± SD
Experimental: The cytotoxic profile of 19 and 27 was assessed on a wider panel of human tumor cell lines including also examples of breast (MCF-7), cervical (A431), colorectal (HCT-15), and ovarian (2008) cancers as well as melanoma (A375), besides lung (A549) and pancreatic (BxPC3) cancer cells. IC50 values, calculated from the dose-survival curves obtained after 72 h of drug treatment from the MTT test, are reported in Table 2. […] Both compounds were endowed with a cytotoxic potency higher than that of SU, eliciting IC50 values in the low micromolar range.
All compounds, except derivative 27, were dissolved in DMSO just before the experiment, and a calculated amount of drug solution was added to the cell growth medium to a final solvent concentration of 0.5%, which had no discernible effect on cell killing. Compound 27 was dissolved in a 0.9% NaCl solution just before the experiment.
Human lung (A549), breast (MCF-7), pancreas (BxPC3), and colon (LoVo) carcinoma cell lines along with melanoma (A375) were obtained from American Type Culture Collection (ATCC, Rockville, MD). Human non-tumor embryonic kidney HEK293 cells were obtained from European Collection of Cell Cultures (ECACC, Salisbury, UK). Human cervical carcinoma A431cells were kindly provided by Prof. F. Zunino (Division of Experimental Oncology B, Istituto Nazionale dei Tumori, Milan, Italy). Human ovarian cancer 2008 cells were kindly provided by Prof. G. Marverti (Dept. of Biomedical Science of Modena University, Italy). […]
The growth inhibitory effect towards human cell lines was evaluated by means of MTT (tetrazolium salt reduction) assay. […] After overnight incubation, the inhibition of cell growth induced by the tested complexes was detected by measuring the absorbance of each well at 570 nm using a Bio-Rad 680 microplate reader (Bio-Rad, Hercules, CA). Mean absorbance for each drug dose was expressed as a percentage of the control untreated well absorbance and plotted vs drug concentration.

SMILES | KdRTK/KdKIT, FLT3 (FLT3) | Kd (FLT3; read-out: Kd (nM) FLT3) [nM] | KdRTK/KdKIT, PDGFRβ (PDGFRβ) | Kd (PDGFRβ) [nM] | IC50 (LoVo cells) [µM] | Potency improvement Kd19/Kd27, FLT3 (FLT3; 27 versus 19) | Kd (FLT3; bound stated, read-out: Kd against FLT3) [nM] | Potency improvement Kd19/Kd27, PDGFRβ (PDGFRβ; 27 versus 19)
O=C(Nc1ccccc1)Nc1ccc(Nc2cc(-c3ccccc3)ncn2)cc1 [Compound 19] | 209 | 4600 | 4 | 80 | 7.45 ± 1.53 |  |  | 
O=C(CN1CCOCC1)Nc1cccc(-c2cc(Nc3ccc(NC(=O)Nc4ccccc4)cc3)ncn2)c1 [Compound 27] | 130 | 1300 | 7 | 70 | 7.76 ± 1.28 | 3.5 | > 1000 | 1.1
